Here are results for one compound from US12534748B2, “Engineered beta-subunit of tryptophan synthase for production of non-canonical amino acids” (California Institute of Technology, priority 2015, dated 2026).

The assay addresses T1, Thermotoga maritima TrpB variant TmTrpB^T292S, SEQ ID NO: 26 (Thermotoga maritima, UniProt P50909, T292S).
T1 sequence (P50909 with tags, fused parts or gaps T292S): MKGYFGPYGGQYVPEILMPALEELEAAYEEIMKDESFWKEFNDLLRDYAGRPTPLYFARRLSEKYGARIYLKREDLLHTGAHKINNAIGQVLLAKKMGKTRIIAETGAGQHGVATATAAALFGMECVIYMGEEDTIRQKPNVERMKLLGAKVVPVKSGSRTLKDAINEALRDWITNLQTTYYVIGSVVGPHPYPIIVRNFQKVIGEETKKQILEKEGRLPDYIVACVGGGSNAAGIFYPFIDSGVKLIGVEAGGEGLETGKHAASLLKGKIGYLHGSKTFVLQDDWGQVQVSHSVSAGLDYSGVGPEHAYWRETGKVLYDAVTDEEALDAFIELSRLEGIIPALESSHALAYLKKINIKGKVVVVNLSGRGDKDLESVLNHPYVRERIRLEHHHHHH
Kind of assay: Tryptophan formation from L-serine and indole, kinetics of TmTrpB^T292S. In kind it is biochemical. As for the experimental part:
Kinetics and UV-Vis Spectroscopy. Data were collected between 550 and 250 nm on a UV1800 Shimadzu spectrophotometer (Shimadzu) using 0.25-20 μM of enzyme in 200 mM potassium phosphate (pH 8.0) in a quartz cuvette. Samples were incubated at 75° C. for >3 min to ensure a stable temperature was reached. PfTrpB activity (kcat) was measured by monitoring tryptophan formation at 290 nm using Δe290=1.89 mM^−1·cm^−1.
Cloning, expression, and purification of the different orthologs. The genes encoding AfTrpB (UNIPROT ID O28672), TmTrpB (UNIPROT ID P50909) and EcTrpB (UNIPROT ID P0A879) were obtained from IDT and cloned into pET22(b)+ using Gibson Assembly. Protein expression was carried out in E. coli BL21 E. cloni Express cells (Lucigen) by inoculating 10-mL Terrific Broth (with 100 μg/mL ampicillin (TBamp)) with a single colony and incubated over night at 37° C. and 250 rpm. These overnight cultures were used to scale up to 500-mL TBamp expression cultures, which were grown by shaking at 250 rpm and 37° C. for ˜3 h or until an OD600 of 0.8 was reached. Then, after chilling the cultures on ice for 20 min, induction was conducted by the addition of IPTG to a final concentration of 1 mM. Induced cultures were allowed to grow at 250 rpm and 20° C. for another 20 h. After centrifugation, pelleted cells were frozen and stored at −20° C. until further use. For protein purification, thawed cells were resuspended in 50 mM potassium phosphate buffer (KPi, pH 8, 20 mM imidazole and 100 mM NaCl (buffer A)), with 200 μM PLP. Lysis was performed by adding BugBuster (Novagen) and incubating for 15 min at 37° C. Once cells were lysed, they were centrifuged to obtain the soluble protein-rich fraction. In the case of TmTrpB (but not for AfTrpB or EcTrpB), the lysate was then incubated at 75° C. for 20 min and was subjected to another centrifugation step. […]
The next homolog, TmTrpB, was examined. […] The variants without the T292S mutation lacked this probative absorbance peak, but the decrease at 428 nm and concomitant increase at 350 nm are consistent with a similar, though less pronounced activation.

For orientation: kcat means the number of substrate molecules converted per active site and unit of time at saturation. Regarding `c1ccc2[nH]ccc2c1` [indole], the catalytic constant (kcat) (75° C.) came to 5.8 s⁻¹. Further, where the note is “relative to TmTrpA binding (TmTrpS)”, the “increase in kcat more than TmTrpA binding” value amounted to 3 fold. Also, under “with respect to wild type”, the increase in kcat was 4 fold.
